From ChEMBL document CHEMBL1151593, “Synthesis and nti-tubulin activity of aza-combretastatins” (Bioorg Med Chem Lett, 1994)

What follows are compounds tested against Tubulin alpha chain (Sus scrofa, UniProt P02550) (assay: Evaluated for the inhibitory concentration against porcine brain tubulin polymerization).
Type: functional

Chain of Tubulin alpha chain (P02550 whole entry, looked up): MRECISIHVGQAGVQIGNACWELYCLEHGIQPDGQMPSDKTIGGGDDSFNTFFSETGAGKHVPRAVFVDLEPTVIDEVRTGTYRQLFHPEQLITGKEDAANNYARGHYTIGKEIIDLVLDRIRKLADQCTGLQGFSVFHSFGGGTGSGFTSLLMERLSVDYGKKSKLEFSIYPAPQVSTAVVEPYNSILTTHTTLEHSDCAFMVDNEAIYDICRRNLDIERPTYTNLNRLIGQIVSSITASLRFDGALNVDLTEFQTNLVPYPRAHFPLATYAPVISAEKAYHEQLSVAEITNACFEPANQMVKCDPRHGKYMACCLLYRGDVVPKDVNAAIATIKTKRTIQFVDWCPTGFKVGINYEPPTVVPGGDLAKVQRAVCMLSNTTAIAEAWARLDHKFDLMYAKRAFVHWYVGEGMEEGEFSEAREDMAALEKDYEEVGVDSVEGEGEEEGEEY

SMILES	IC50
COc1ccc(CNc2cc(OC)c(OC)c(OC)c2)cc1O	100 µM
COc1ccc(C(=O)Nc2cc(OC)c(OC)c(OC)c2)cc1O	> 100 µM
COc1ccc(N(CCCCCO)Cc2cc(OC)c(OC)c(OC)c2)cc1O	20 µM
CCCCCCN(Cc1cc(OC)c(OC)c(OC)c1)c1ccc(OC)c(O)c1	20 µM
CCCCCN(Cc1cc(OC)c(OC)c(OC)c1)c1ccc(OC)c(O)c1	20 µM
COc1ccc(NC(=O)c2cc(OC)c(OC)c(OC)c2)cc1O	> 100 µM
COc1ccc(NCc2cc(OC)c(OC)c(OC)c2)cc1O	100 µM

Second part, the compound after the results:

IC50	SMILES
> 100 µM	COc1ccc(N(Cc2cc(OC)c(OC)c(OC)c2)C(C)=O)cc1O
7.5 µM	CCCCN(Cc1cc(OC)c(OC)c(OC)c1)c1ccc(OC)c(O)c1
> 100 µM	COc1ccc(N(C)C(=O)c2cc(OC)c(OC)c(OC)c2)cc1O
15 µM	CCN(Cc1cc(OC)c(OC)c(OC)c1)c1ccc(OC)c(O)c1
45 µM	COc1ccc(N(C)Cc2cc(OC)c(OC)c(OC)c2)cc1O
100 µM	COc1ccc(CN(C)c2cc(OC)c(OC)c(OC)c2)cc1O
> 100 µM	COc1ccc(C(=O)N(C)c2cc(OC)c(OC)c(OC)c2)cc1O
> 100 µM	CCC(=O)N(Cc1cc(OC)c(OC)c(OC)c1)c1ccc(OC)c(O)c1
5.4 µM	CCCN(Cc1cc(OC)c(OC)c(OC)c1)c1ccc(OC)c(O)c1
40 µM	COc1ccc(N(CCCC(=O)O)Cc2cc(OC)c(OC)c(OC)c2)cc1O
